Results taken from the supplement of paper PMC10307832.

Key:
Test in all cases: relative viability (nuclei count vs DMSO), 5 days (fraction); higher = more cells survive
[1] = compound: COc1cccc2c1C(=O)c1c(O)c3c(c(O)c1C2=O)C[C@@](O)(C(=O)CO)C[C@@H]3O[C@H]1C[C@H](N)[C@H](O)[C@H](C)O1 [Doxorubicin] + COc1cccc2cc(-c3nc([C@H]4CC[C@H](C(=O)O)CC4)n4ncnc(N)c34)[nH]c12 [OSI-027] (partner 0.5 µM)
Outline: (§1)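 Relative viability equals treated-well nuclei counts divided by vehicle-well nuclei counts. Counts came from 4× images of lung cancer cell lines grown in 1536-well plates for 5 days after pin-tool dosing on the day after seeding. Dosing used one drug alone or a fixed anchor-drug dose plus five library-drug doses (not always all listed) in √10 steps, and values are medians of duplicate plates.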

[2] = compound: COC1=C(C=C(C=C1)C2=CC3=NC=CN3C(=N2)NC4=C(C=CC=N4)C(=O)N)OC [BAY61-3606] + Nc1nc2[nH]cc(CCc3ccc(C(=O)N[C@@H](CCC(=O)O)C(=O)O)cc3)c2c(=O)[nH]1 [Pemetrexed] (partner 0.2 µM)
Outline: as §1

[3] = compound: COc1cccc2c1C(=O)c1c(O)c3c(c(O)c1C2=O)C[C@@](O)(C(=O)CO)C[C@@H]3O[C@H]1C[C@H](N)[C@H](O)[C@H](C)O1 [Doxorubicin] + O=C(c1cc(Cc2n[nH]c(=O)c3ccccc23)ccc1F)N1CCN(C(=O)C2CC2)CC1 [Olaparib] (partner 8 µM)
Outline: as §1

[4] = compound: COc1cccc2c1C(=O)c1c(O)c3c(c(O)c1C2=O)C[C@@](O)(C(=O)CO)C[C@@H]3O[C@H]1C[C@H](N)[C@H](O)[C@H](C)O1 [Doxorubicin] + Nc1ncn([C@H]2C[C@H](O)[C@@H](CO)O2)c(=O)n1 [Decitabine] (partner 2 µM)
Outline: as §1

Cell Line | relative viability ([1]; first compound 0.001 µM) | relative viability ([1]; first compound 0.003162 µM) | relative viability ([1]; first compound 0.01 µM) | relative viability ([1]; first compound 0.03162 µM) | relative viability ([1]; first compound 0.1 µM) | relative viability ([2]; first compound 0.02 µM) | relative viability ([2]; first compound 0.06325 µM) | relative viability ([2]; first compound 0.2 µM) | relative viability ([2]; first compound 2 µM) | relative viability ([3]; first compound 0.001 µM) | relative viability ([3]; first compound 0.003162 µM) | relative viability ([3]; first compound 0.01 µM) | relative viability ([3]; first compound 0.03162 µM) | relative viability ([3]; first compound 0.1 µM) | relative viability ([4]; first compound 0.001 µM) | relative viability ([4]; first compound 0.003162 µM) | relative viability ([4]; first compound 0.01 µM) | relative viability ([4]; first compound 0.03162 µM) | relative viability ([4]; first compound 0.1 µM) | relative viability ([2]; first compound 0.6325 µM)
NCI-H1648 | 0.291 | 0.276 | 0.261 | 0.259 | 0.266 | 0.803 | 0.622 | 0.79 | 0.874 | 0.618 | 1.05 | 0.5 | 0.492 | 0.791 | 0.604 | 0.451 | 0.599 | 0.421 | 0.495 | 
EPLC-272H | 0.29 | 0.275 | 0.255 | 0.272 | 0.28 | 0.374 | 0.299 | 0.319 | 0.278 | 0.767 | 1.01 | 0.832 | 0.453 | 0.261 | 0.382 | 0.324 | 0.32 | 0.387 | 0.423 | 0.374
NCI-H1975 | 0.637 | 0.715 | 0.685 | 0.497 | 0.256 | 0.288 | 0.289 | 0.308 | 0.247 | 0.746 | 0.896 | 0.728 | 0.575 | 0.37 | 0.391 | 0.393 | 0.392 | 0.317 | 0.322 | 0.269
NCI-H520 | 0.249 | 0.274 | 0.233 | 0.193 | 0.202 | 0.75 | 0.782 | 0.768 | 0.467 | 0.318 | 0.337 | 0.313 | 0.248 | 0.297 | 0.53 | 0.471 | 0.416 | 0.328 | 0.47 | 0.684
NCI-H1355 | 0.374 | 0.422 | 0.396 | 0.432 | 0.389 | 1.1 | 1.03 | 0.977 | 0.924 | 0.732 | 0.688 | 0.694 | 0.704 | 0.85 | 0.379 | 0.424 | 0.383 | 0.382 | 0.349 | 1.11
NCI-H2347 | 0.469 | 0.405 | 0.433 | 0.523 | 0.35 | 0.429 | 0.424 | 0.438 | 0.403 | 0.6 | 0.562 | 0.544 | 0.516 | 0.55 | 0.612 | 0.71 | 0.646 | 0.539 | 0.557 | 0.418
NCI-H2342 | 0.628 | 0.563 | 0.597 | 0.59 | 0.609 | 0.748 | 0.774 | 0.716 | 0.811 | 0.41 | 0.525 | 0.445 | 0.371 | 0.384 | 0.703 | 0.778 | 0.786 | 0.63 | 0.748 | 0.825
LC-2-ad | 0.629 | 0.691 | 0.587 | 0.386 | 0.292 | 0.289 | 0.267 | 0.261 | 0.267 | 0.343 | 0.679 | 0.707 | 0.707 | 0.696 | 0.764 | 0.842 | 0.831 | 0.92 | 0.759 | 0.289
NCI-H838 | 0.421 | 0.429 | 0.387 | 0.39 | 0.328 | 0.257 | 0.256 | 0.234 | 0.211 | 0.795 | 0.759 | 0.702 | 0.337 | 0.279 | 0.485 | 0.47 | 0.385 | 0.328 | 0.292 | 0.254
NCI-H1793 |  | 0.334 | 0.253 | 0.265 | 0.292 | 0.983 | 0.88 | 0.896 | 1.08 |  | 0.93 | 0.759 | 0.566 | 0.88 |  | 0.482 | 0.501 | 0.403 | 0.456 | 1.13
NCI-H358 | 0.853 | 0.642 | 0.417 | 0.121 | 0.0934 | 0.196 | 0.184 | 0.226 | 0.153 | 0.592 | 0.535 | 0.347 | 0.12 | 0.116 | 0.206 | 0.17 | 0.154 | 0.12 | 0.0966 | 0.163
NCI-H2087 |  | 0.702 | 0.414 | 0.403 | 0.269 | 0.578 | 0.685 | 0.682 | 0.588 | 0.652 | 0.528 | 0.445 | 0.443 | 0.372 | 0.291 | 0.264 | 0.239 | 0.242 | 0.173 | 0.625
NCI-H596 | 0.578 | 0.801 | 0.799 | 0.647 | 0.721 | 0.454 | 0.511 | 0.534 | 0.486 | 0.593 | 0.667 | 0.685 | 0.647 | 0.651 | 1.97 | 1.09 | 1 | 0.86 | 1.08 | 0.555
RERF-LC-KJ | 0.643 | 0.556 | 0.544 | 0.302 | 0.261 | 0.467 | 0.463 | 0.501 | 0.432 | 0.906 | 0.784 | 0.55 | 0.3 | 0.261 | 0.78 | 0.671 | 0.598 | 0.334 | 0.282 | 0.484
NCI-H647 | 0.695 | 0.805 | 0.771 | 0.498 | 0.215 | 0.146 | 0.156 | 0.184 | 0.131 | 0.503 | 0.47 | 0.48 | 0.0818 | 0.124 | 0.39 | 0.387 | 0.342 | 0.206 | 0.183 | 0.145
LU99A | 0.353 | 0.338 | 0.302 | 0.273 | 0.315 | 0.175 | 0.149 | 0.193 | 0.166 | 0.235 | 0.264 | 0.287 | 0.274 | 0.253 | 0.954 | 1.07 | 0.951 | 0.972 | 0.945 | 0.171
NCI-H460 | 0.614 | 0.41 | 0.482 | 0.0685 | 0.0255 | 0.0615 | 0.0666 | 0.0787 | 0.0667 | 0.366 | 0.419 | 0.346 | 0.114 | 0.0883 | 0.445 | 0.375 | 0.282 | 0.0686 | 0.0323 | 0.0676
NCI-H650 | 0.574 | 0.544 | 0.59 | 0.522 | 0.495 | 0.958 | 0.904 | 0.892 | 0.797 | 0.418 | 0.494 | 0.38 | 0.334 | 0.296 | 0.287 | 0.336 | 0.283 | 0.265 | 0.304 | 1.01
PC-14 | 0.683 | 1.14 | 0.865 | 0.161 | 0.0612 | 0.159 | 0.136 | 0.134 | 0.148 | 0.239 | 0.257 | 0.203 | 0.0737 | 0.0408 | 0.246 | 0.228 | 0.238 | 0.0977 | 0.0677 | 0.137
PC-3 [JPC-3] | 0.797 | 0.729 | 0.747 | 0.733 | 0.801 | 1.12 | 1.05 | 1.21 | 1.04 | 1.04 | 0.944 | 1.17 | 0.897 | 0.825 | 0.765 | 0.803 | 0.907 | 0.829 | 0.732 | 1.13
NCI-H1944 | 0.317 | 0.46 | 0.473 | 0.358 | 0.366 | 0.677 | 0.565 | 0.644 | 0.518 | 0.403 | 0.37 | 0.384 | 0.378 | 0.423 | 0.441 | 0.506 | 0.403 | 0.372 | 0.439 | 0.583
NCI-H1755 | 0.631 | 0.711 | 0.747 | 0.721 | 0.704 | 0.488 | 0.4 | 0.411 | 0.562 | 0.837 | 0.911 | 0.818 | 0.873 | 0.896 | 0.774 | 0.763 | 0.736 | 0.714 | 0.743 | 0.419
H3255 | 0.641 | 0.517 | 0.629 | 0.581 | 0.594 | 0.587 | 0.546 | 0.598 | 0.593 | 0.541 | 0.553 | 0.541 | 0.48 | 0.424 |  | 0.533 | 0.604 | 0.568 | 0.583 | 0.626
201T | 0.494 | 0.838 | 0.724 | 0.638 | 0.274 | 0.358 | 0.366 | 0.339 | 0.32 | 0.849 | 0.825 | 0.837 | 0.856 | 0.831 | 0.899 | 0.879 | 0.824 | 0.835 | 0.804 | 0.325
NCI-H661 | 0.829 | 0.639 | 0.625 | 0.46 | 0.291 | 0.963 | 1.01 | 0.84 | 0.703 | 0.674 | 0.881 | 0.681 | 0.542 | 0.52 | 0.561 | 0.568 | 0.506 | 0.426 | 0.337 | 0.931
NCI-H1792 |  | 0.674 | 0.713 | 0.709 | 0.625 | 1.07 | 1.09 | 0.852 | 0.614 | 0.506 | 0.473 | 0.473 | 0.412 | 0.548 | 0.622 | 0.677 | 0.57 | 0.485 | 0.525 | 0.771
NCI-H2085 | 0.786 | 0.784 | 0.667 | 0.679 | 0.589 | 0.984 | 0.946 | 0.861 | 0.898 | 0.788 | 0.825 | 0.828 | 0.92 | 0.775 | 0.536 | 0.5 | 0.522 | 0.521 | 0.553 | 1.08
NCI-H2023 | 0.347 | 0.363 | 0.314 | 0.142 | 0.0903 | 0.263 | 0.257 | 0.212 | 0.157 | 0.454 | 0.336 | 0.19 | 0.0859 | 0.0625 | 0.209 | 0.219 | 0.171 | 0.0903 | 0.0802 | 0.246
